US10435400B2, “2,4-disubstituted phenylene-1,5-diamine derivatives and applications thereof, and pharmaceutical compositions and pharmaceutically acceptable compositions prepared therefrom” (SHANGHAI HAIYAN PHARMACEUTICAL TECHNOLOGY CO., LTD., priority 2014, dated 2019)
Like-named read-outs stand apart in the source and are kept apart here.

Tests used:
NIH3T3 cells = assay: Cytotoxicity by MTT method, NIH3T3 cells; type: cell-based; details: read-out: NIH3T3 cells MTT assay (IC50/nM);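 further: cells grown in 96-well plates with compound for 72 h, then given MTT for a further 4 h at 37 °C under 5% CO2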
H1975 cells [1] = assay: Cytostatic activity by MTT method, H1975 cells; type: cell-based; details: read-out: H1975 cells (IC50/nM)
Protocol: MTT assay used the method well known to those skilled in the art, and the reagents used in the method can be commercially obtained. […] After rinsed for one time, 1.5 ml trypsin/EDTA was added to digest the adherent cells until the cells detached, and then 3.5 ml of medium was added to terminate the trypsinization. The digested cell suspension was transferred to a 15 ml falcon tube, and spun at 1300 rpm for 3 min, the supernatant was discarded, and cells were suspended in fresh medium. […] The plates were spun at 2000 rpm for 5 min.

EGFR WT kinase = EGFR WT kinase (Homo sapiens (Human), UniProt P00533); assay: Wild type EGFR kinase inhibition test (z-lyte); type: biochemical; details: 10 μM ATP
Chain of EGFR WT kinase (P00533 25-1210): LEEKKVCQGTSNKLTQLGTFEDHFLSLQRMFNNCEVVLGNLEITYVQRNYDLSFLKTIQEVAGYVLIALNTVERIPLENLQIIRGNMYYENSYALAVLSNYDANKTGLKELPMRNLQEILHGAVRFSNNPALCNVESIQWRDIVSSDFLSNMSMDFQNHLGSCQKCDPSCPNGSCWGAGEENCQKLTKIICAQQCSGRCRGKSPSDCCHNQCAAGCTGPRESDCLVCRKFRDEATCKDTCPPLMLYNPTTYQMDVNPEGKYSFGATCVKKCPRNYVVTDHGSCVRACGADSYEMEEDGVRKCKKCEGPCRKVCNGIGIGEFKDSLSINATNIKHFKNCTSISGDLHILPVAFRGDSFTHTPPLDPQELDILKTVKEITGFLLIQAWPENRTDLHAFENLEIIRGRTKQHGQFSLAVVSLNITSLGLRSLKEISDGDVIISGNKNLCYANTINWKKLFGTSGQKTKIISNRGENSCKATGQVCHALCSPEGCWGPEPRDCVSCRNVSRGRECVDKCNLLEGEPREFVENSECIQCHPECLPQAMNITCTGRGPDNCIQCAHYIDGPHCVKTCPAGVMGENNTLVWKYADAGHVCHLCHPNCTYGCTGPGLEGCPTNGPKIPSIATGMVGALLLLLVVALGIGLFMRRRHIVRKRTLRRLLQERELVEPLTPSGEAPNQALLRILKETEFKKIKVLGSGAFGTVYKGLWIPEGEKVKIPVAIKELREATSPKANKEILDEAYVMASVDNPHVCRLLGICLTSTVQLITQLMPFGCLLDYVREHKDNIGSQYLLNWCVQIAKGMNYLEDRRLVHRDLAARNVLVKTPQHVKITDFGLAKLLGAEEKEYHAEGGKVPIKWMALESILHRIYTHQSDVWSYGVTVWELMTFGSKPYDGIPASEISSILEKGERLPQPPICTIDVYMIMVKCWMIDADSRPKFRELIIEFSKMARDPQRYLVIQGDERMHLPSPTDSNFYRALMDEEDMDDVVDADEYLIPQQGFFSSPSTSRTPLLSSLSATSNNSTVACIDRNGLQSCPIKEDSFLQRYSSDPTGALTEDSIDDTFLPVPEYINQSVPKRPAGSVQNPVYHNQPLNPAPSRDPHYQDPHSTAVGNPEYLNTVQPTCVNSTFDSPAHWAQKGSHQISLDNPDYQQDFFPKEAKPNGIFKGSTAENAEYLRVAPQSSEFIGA

H1975 cells [2] = assay: ELISA screening EGFR T790M inhibitor for cell activity, H1975 cells; type: cell-based; details: ELISA; for IC50: compound 1 h, read-out: H1975 cells (IC50/nM); for Selective inhibitory activities of target on cellular level [IC50 (A431 cells)/IC50 (H1975 cells)]: ratio of IC50 values
A431 cells = assay: ELISA cell activity, EGF-stimulated A431 cells; type: cell-based; details: ELISA, compound 1 h then EGF 45 minutes, read-out: A431 cells (IC50/nM);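 further: Serum-starved A431 cells pretreated with compound for 1 h, then stimulated with EGF for 45 min, lysates read by ELISA (OD450 minus OD570), EGF-only wells as control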
Protocol: The reagents, preparation methods of the solution, as well as the procedures of cell treatments and preparation of lysate, and the test steps of ELISA in the following method were conducted according to the instructions of R&D DYC3570, R&D DYC1095E and R&D DYC1095BE.
Cell lysates: cell lysis buffer+10 μg/ml Aprotinin (Sigma), 10 μg/ml Leupeptin (Sigma). All reagents were prepared when using.
(2) The medium of A431 cells was changed to 90 ul of DMEM FBS free medium, and incubated overnight.
(3) The test compounds were diluted according to the method in MTT assay, 10 μl of diluted compound or DMSO was added to the corresponding plate well, and incubated at 37° C. with 5% CO2 for 1 h. The final concentration of DMSO was 0.5%. 10 μl of 2 μg/L EGF was then added to each well except the cell control well, 10 μl of FBS free DMEM was added to the well, and incubated for 45 minutes; the EGF-free and compound treatment-free cells were used as cell control, and the compound treatment-free but only EGF-treated cells were used as EGF control.
(4) 100 μl cell lysate was added after aspirating the medium, sealed and placed in refrigerator at −80° C. overnight.
The assay was operated according to the instructions of R&D DYC3570E.
(5) 40 μl of cell lysis buffer and 60 μl of cell lysates were added, and incubated at 25° C. for 2 h under shaking;
(7) Detection antibody was diluted according to a predetermined ratio of kit instruction by using IC dilution, and 100 μl of the diluted Detection Antibody was added to each well, and incubated at 25° C. for 1 h under shaking in darkness;
(9) reagent A and reagent B of TMB substrate (R & D DY999) were mixed at 1:1, 100 μl of substrate was added to each well, and incubated at 25° C. for 20 minutes under shaking in darkness;
(11) The OD450 values and OD570 values of the cell control, blank control and compound treatment were measured respectively by using microplate reader (Thermo Multiskan K3), and the corresponding OD570 values were subtracted from OD450 values of the same wells to get the ODEGF, ODcompound and ODcell respectively.

[3] = Mus musculus, NIH3T3, cytotoxicity, MTT, 72 h

| Compound | IC50 (EGFR WT kinase) [nM] | IC50 (NIH3T3 cells; cytotoxicity, MTT, 72 h) [nM] | Selective inhibitory activities of target on cellular level [IC50 (A431 cells)/IC50 (H1975 cells)] (H1975 cells [2]) | also measured |
| --- | --- | --- | --- | --- |
| CN(C)C/C=C/C(=O)Nc1cc2c(Nc3ccc(F)c(Cl)c3)ncnc2cc1O[C@H]1CCOC1 [BIBW2992, Afatinib, reference compound] |  |  |  | IC50 (NIH3T3 cells; Mus musculus, NIH3T3, 72 h): 2750 nM; IC50 (H1975 cells [1]; Homo sapiens, NCI-H1975, 72 h): 88 nM |
| C=CC(=O)Nc1cc(Nc2ncc(Cl)c(-c3cnc4c(ccn4C)c3)n2)c(OC)cc1N(C)CCN(C)C [Compound Z-1, N-(5-(5-chloro-4-(1-methyl-1H-pyrrolo[2,3-b]pyridin-5-yl)pyrimidin-2-amino)-2-((2-(dimethylamino)ethyl)methylamino)-4-methoxyphenyl)acrylamide] | 25 | 6590 | 15.7 | IC50 (H1975 cells [2]): 30 nM; IC50 (A431 cells): 471 nM |
| C=CC(=O)Nc1cc(Nc2ncc(Cl)c(-c3cnc4c(ccn4C)c3)n2)c(OC)cc1N1CCN(C)CC1 [Compound Z-3, N-(5-(5-chloro-4-(1-methyl-1H-pyrrolo[2,3-b]pyridin-5-yl)pyrimidin-2-amino)-4-methoxy-2-(4-methylpiperazin-1-yl)phenyl)acrylamide] |  |  |  | IC50 (NIH3T3 cells; [3]): 8160 nM |
| C=CC(=O)Nc1cc(Nc2nccc(-c3cnc4c(cnn4C)c3)n2)c(OC)cc1N1CCC(N(C)C)CC1 [Compound Z-4, N-(2-(4-(dimethylamino)piperidin-1-yl)-4-methoxy-5-(4-(1-methyl-1H-pyrazolo[3,4-b]pyridin-5-yl)pyrimidin-2-ylamino)phenyl)acrylamide] | 45 |  |  |  |
| C=CC(=O)Nc1cc(Nc2nccc(-c3cnc4c(cnn4C)c3)n2)c(OC)cc1N1CCN(C)CC1 [Compound Z-5, N-(4-methoxy-5-(4-(1-methyl-1H-pyrazolo[3,4-b]pyridin-5-yl)pyrimidin-2-ylamino)-2-(4-methylpiperazin-1-yl)phenyl)acrylamide] | 105 |  |  |  |
| C=CC(=O)Nc1cc(Nc2nccc(-c3cnn(C)c3)n2)c(OC)cc1N1CCC(N(C)C)CC1 [Compound Z-17, N-(2-(4-(dimethylamino)piperidin-1-yl)-4-methoxy-5-((4-(1-methyl-1H-pyrazol-4-yl)pyrimidin-2-yl)amino)phenyl)acrylamide] |  |  |  | IC50 (H1975 cells [2]; Homo sapiens, NCI-H1975): 77 nM; IC50 (A431 cells; Homo sapiens, A-431): 3080 nM |
| C=CC(=O)Nc1cc(Nc2nccc(-c3cnn(C)c3)n2)c(OC)cc1N(C)CCN(C)C [Compound Z-18, N-(2-((2-(dimethylamino)ethyl)(methyl)amino)-4-methoxy-5-((4-(1-methyl-1H-pyrazol-4-yl)pyrimidin-2-yl)amino)phenyl)acrylamide] | 197 |  |  |  |
| C=CC(=O)Nc1cc(Nc2ncc(F)c(-c3cnc4c(ccn4C)c3)n2)c(OC)cc1N(C)CCN(C)C [Compound Z-20, N-(2-((2-(dimethylamino)ethyl)(methyl)amino)-5-((5-fluoro-4-(1-methyl-1H-pyrrolo[2,3-b]pyridin-5-yl)pyrimidin-2-yl)amino)-4-methoxyphenyl)acrylamide] | 4 |  | 7.6 | IC50 (H1975 cells [2]; Homo sapiens, NCI-H1975): 22 nM; IC50 (A431 cells; Homo sapiens, A-431): 167 nM |
| C=CC(=O)Nc1cc(Nc2ncc(OC)c(-c3cnc4c(ccn4C)c3)n2)c(OC)cc1N(C)CCN(C)C [Compound Z-21, N-(2-((2-(dimethylamino)ethyl)(methyl)amino)-4-methoxy-5-((5-methoxy-4-(1-methyl-1H-pyrrolo[2,3-b]pyridin-5-yl)pyrimidin-2-yl)amino)phenyl)acrylamide] | 9 |  | 10.3 | IC50 (H1975 cells [2]; Homo sapiens, NCI-H1975): 11 nM; IC50 (A431 cells; Homo sapiens, A-431): 113 nM |
| C=CC(=O)Nc1cc(Nc2nccc(-c3cnc4c(ccn4C)c3)n2)c(OC)cc1N1CCC(N(C)C)CC1 [Compound Z-25] | 61 | 6910 |  |  |
| C=CC(=O)Nc1cc(Nc2nccc(-c3cnc4c(ccn4C)c3)n2)c(OC)cc1N1CCN(C)CC1 [Compound Z-26] | 114 | > 10000 |  |  |
| C=CC(=O)Nc1cc(Nc2ncc(F)c(-c3cnc4c(ccn4C)c3)n2)c(OC)cc1N1CCC(N(C)C)CC1 [Compound Z-29] | 118 |  |  |  |
| C=CC(=O)Nc1cc(Nc2ncc(C(=O)OC)c(-c3cnc4c(ccn4C)c3)n2)c(OC)cc1N(C)CCN(C)C [Compound Z-32] | 4 | > 10000 |  |  |
| C=CC(=O)Nc1cc(Nc2nccc(-c3cnc4[nH]ccc4c3)n2)c(OC)cc1N1CC(N(C)C)C1 [Compound Z-33] |  | > 10000 |  |  |
| C=CC(=O)Nc1cc(Nc2ncc(F)c(-c3cnc4c(cnn4C)c3)n2)c(OC)cc1N1CCC(N(C)C)CC1 [Compound Z-37] | 89 |  | 8.4 | IC50 (H1975 cells [2]): 57 nM; IC50 (A431 cells): 481 nM |
| C=CC(=O)Nc1cc(Nc2ncc(OC)c(-c3cnc4c(cnn4C)c3)n2)c(OC)cc1N1CCC(N(C)C)CC1 [Compound Z-38] | 35 | > 10000 |  |  |
| C=CC(=O)Nc1cc(Nc2ncc(Cl)c(-c3cnc4c(cnn4C)c3)n2)c(OC)cc1N1CCC(N(C)C)CC1 [Compound Z-40] | 233 |  | 30.5 | IC50 (H1975 cells [2]): 70 nM; IC50 (A431 cells): 2140 nM |

| Compound | IC50 (EGFR WT kinase) [nM] | IC50 (NIH3T3 cells; cytotoxicity, MTT, 72 h) [nM] | Selective inhibitory activities of target on cellular level [IC50 (A431 cells)/IC50 (H1975 cells)] (H1975 cells [2]) | also measured |
| --- | --- | --- | --- | --- |
| C=CC(=O)Nc1cc(Nc2ncc(F)c(-c3cnc4c(cnn4C)c3)n2)c(OC)cc1N(C)CCN(C)C [Compound Z-41] | 20 | > 10000 | 30.8 | IC50 (H1975 cells [2]): 31 nM; IC50 (A431 cells): 954 nM |
| C=CC(=O)Nc1cc(Nc2nccc(-c3cnc4c(c3)c(Cl)cn4C)n2)c(OC)cc1N(C)CCN(C)C [Compound Z-54] |  |  |  | IC50 (H1975 cells [1]; MTT, 72 h): 3 nM; IC50 (H1975 cells [2]): 4 nM |
| C=CC(=O)Nc1cc(Nc2nccc(-c3ccc4c(ccn4C)c3)n2)c(OC)cc1N(C)CCN(C)C [Compound Z-87] | 8 |  | 6.8 | IC50 (H1975 cells [2]): 31 nM; IC50 (A431 cells): 210 nM |
| C=CC(=O)Nc1cc(Nc2ncc(Cl)c(-c3ccc4c(ccn4C)c3)n2)c(OC)cc1N(C)CCN(C)C [Compound Z-88] | 11 |  | 24.9 | IC50 (H1975 cells [2]): 18 nM; IC50 (A431 cells): 449 nM |
| C=CC(=O)Nc1cc(Nc2ncc(F)c(-c3cnn(C)c3)n2)c(OC)cc1N(C)CCN(C)C [Compound Z-93, N-(2-((2-(dimethylamino)ethyl)(methyl)amino)-5-(5-fluoro-4-(1-methyl-1H-pyrazol-4-yl)pyrimidin-2-ylamino)-4-methoxyphenyl)acrylamide] |  |  |  | IC50 (NIH3T3 cells; [3]): > 10000 nM |
| C=CC(=O)Nc1cc(Nc2ncc(Cl)c(-c3cnn(C4CCNCC4)c3)n2)c(OC)cc1N1CCC(N(C)C)CC1 [Compound Z-96, N-(5-(5-chloro-4-(1-(piperidin-4-yl)-1H-pyrazol-4-yl)pyrimidin-2-ylamino)-2-(4-(dimethylamino)piperidin-1-yl)-4-methoxyphenyl)acrylamide] | 41 |  | 10.3 | IC50 (H1975 cells [2]; Homo sapiens, NCI-H1975): 94 nM; IC50 (A431 cells; Homo sapiens, A-431): 969 nM |
| C=CC(=O)Nc1cc(Nc2ncc(Cl)c(-c3cnn(C)c3C)n2)c(OC)cc1N1CCC(N(C)C)CC1 [Compound Z-97, N-(5-(5-chloro-4-(1,5-dimethyl-1H-pyrazol-4-yl)pyrimidin-2-ylamino)-2-(4-(dimethylamino)piperidin-1-yl)-4-methoxyphenyl)acrylamide] | 341 |  | 72.1 | IC50 (H1975 cells [2]; Homo sapiens, NCI-H1975): 104 nM; IC50 (A431 cells; Homo sapiens, A-431): 7500 nM |
| C=CC(=O)Nc1cc(Nc2ncc(Cl)c(-c3cnn(C(F)F)c3)n2)c(OC)cc1N1CCC(N(C)C)CC1 [Compound Z-101, N-(5-(5-chloro-4-(1-(difluoromethyl)-1H-pyrazol-4-yl)pyrimidin-2-ylamino)-2-(4-(dimethylamino)piperidin-1-yl)-4-methoxyphenyl)acrylamide] |  |  |  | IC50 (NIH3T3 cells; [3]): 3430 nM; IC50 (H1975 cells [1]; Homo sapiens, NCI-H1975, MTT, 72 h): 43 nM |
| C=CC(=O)Nc1cc(Nc2nccc(-c3cnc4c(ccn4C)c3)n2)c(OC)cc1N(C)CCN(C)CC [Compound Z-105] | 7 | 9360 | 6.5 | IC50 (H1975 cells [2]): 28 nM; IC50 (A431 cells): 181 nM |
| C=CC(=O)Nc1cc(Nc2ncc(Cl)c(-c3cnc4c(ccn4C)c3)n2)c(OC)cc1N(C)CCN(C)CC [Compound Z-109] | 28 | 6000 | 5.1 | IC50 (H1975 cells [2]): 85 nM; IC50 (A431 cells): 434 nM |
| C=CC(=O)Nc1cc(Nc2ncc(Cl)c(-c3cnc4c(ccn4C)c3)n2)c(OC)cc1N(C)CCN(CC)CC [Compound Z-110] |  | 6840 |  |  |
| C=CC(=O)Nc1cc(Nc2ncc(Cl)c(-c3cnc4c(ccn4C)c3)n2)c(OC)cc1N(C)CCCN(C)C [Compound Z-111] |  | 4010 |  |  |
| C=CC(=O)Nc1cc(Nc2ncc(Cl)c(-c3cnc4c(ccn4C)c3)n2)c(OC)cc1NCCCN(C)C [Compound Z-114] | 116 | 8280 |  |  |
| C=CC(=O)Nc1cc(Nc2ncc(Cl)c(-c3cnc4c(ccn4C)c3)n2)c(OC)cc1N(C)CCNC [Compound Z-116] | 37 | > 10000 |  |  |
| C=CC(=O)Nc1cc(Nc2ncc(F)c(-c3cnc4c(ccn4C)c3)n2)c(OC)cc1OCCN(C)C [Compound Z-118] | 6 | 3320 |  |  |
| C=CC(=O)Nc1cc(Nc2ncc(Cl)c(-c3cnc4c(c3)c(Cl)cn4C)n2)c(OC)cc1N(C)CCN(C)C [Compound Z-121] | 14 | 8530 |  |  |
| C=CC(=O)Nc1cc(Nc2ncc(F)c(-c3cnc4c(c3)c(Cl)cn4C)n2)c(OC)cc1N1CCC(N(C)C)CC1 [Compound Z-122] | 25 |  |  |  |
